Among the data in article PMC2921631 (Analytical biochemistry, 2010) are IC50 values, retold here.

Common to all, as to format: biochemical
The target of test [1] is LRRK2 (full-length, from BAC-transgenic mouse brain) (Mus musculus, UniProt Q5S006). Nature of the test: TR-FRET kinase assay with PLK-peptide. (In general: Time-resolved FRET reads energy transfer from a long-lived donor to a nearby acceptor.)
In a further test the target is LRRK2 (human, wild-type) (Homo sapiens, UniProt Q5S007). Kind of test: TR-FRET kinase assay with PLK-peptide, […] h preincubation.
LRRK2 (human, wild-type), sequence (Q5S007 970-2527): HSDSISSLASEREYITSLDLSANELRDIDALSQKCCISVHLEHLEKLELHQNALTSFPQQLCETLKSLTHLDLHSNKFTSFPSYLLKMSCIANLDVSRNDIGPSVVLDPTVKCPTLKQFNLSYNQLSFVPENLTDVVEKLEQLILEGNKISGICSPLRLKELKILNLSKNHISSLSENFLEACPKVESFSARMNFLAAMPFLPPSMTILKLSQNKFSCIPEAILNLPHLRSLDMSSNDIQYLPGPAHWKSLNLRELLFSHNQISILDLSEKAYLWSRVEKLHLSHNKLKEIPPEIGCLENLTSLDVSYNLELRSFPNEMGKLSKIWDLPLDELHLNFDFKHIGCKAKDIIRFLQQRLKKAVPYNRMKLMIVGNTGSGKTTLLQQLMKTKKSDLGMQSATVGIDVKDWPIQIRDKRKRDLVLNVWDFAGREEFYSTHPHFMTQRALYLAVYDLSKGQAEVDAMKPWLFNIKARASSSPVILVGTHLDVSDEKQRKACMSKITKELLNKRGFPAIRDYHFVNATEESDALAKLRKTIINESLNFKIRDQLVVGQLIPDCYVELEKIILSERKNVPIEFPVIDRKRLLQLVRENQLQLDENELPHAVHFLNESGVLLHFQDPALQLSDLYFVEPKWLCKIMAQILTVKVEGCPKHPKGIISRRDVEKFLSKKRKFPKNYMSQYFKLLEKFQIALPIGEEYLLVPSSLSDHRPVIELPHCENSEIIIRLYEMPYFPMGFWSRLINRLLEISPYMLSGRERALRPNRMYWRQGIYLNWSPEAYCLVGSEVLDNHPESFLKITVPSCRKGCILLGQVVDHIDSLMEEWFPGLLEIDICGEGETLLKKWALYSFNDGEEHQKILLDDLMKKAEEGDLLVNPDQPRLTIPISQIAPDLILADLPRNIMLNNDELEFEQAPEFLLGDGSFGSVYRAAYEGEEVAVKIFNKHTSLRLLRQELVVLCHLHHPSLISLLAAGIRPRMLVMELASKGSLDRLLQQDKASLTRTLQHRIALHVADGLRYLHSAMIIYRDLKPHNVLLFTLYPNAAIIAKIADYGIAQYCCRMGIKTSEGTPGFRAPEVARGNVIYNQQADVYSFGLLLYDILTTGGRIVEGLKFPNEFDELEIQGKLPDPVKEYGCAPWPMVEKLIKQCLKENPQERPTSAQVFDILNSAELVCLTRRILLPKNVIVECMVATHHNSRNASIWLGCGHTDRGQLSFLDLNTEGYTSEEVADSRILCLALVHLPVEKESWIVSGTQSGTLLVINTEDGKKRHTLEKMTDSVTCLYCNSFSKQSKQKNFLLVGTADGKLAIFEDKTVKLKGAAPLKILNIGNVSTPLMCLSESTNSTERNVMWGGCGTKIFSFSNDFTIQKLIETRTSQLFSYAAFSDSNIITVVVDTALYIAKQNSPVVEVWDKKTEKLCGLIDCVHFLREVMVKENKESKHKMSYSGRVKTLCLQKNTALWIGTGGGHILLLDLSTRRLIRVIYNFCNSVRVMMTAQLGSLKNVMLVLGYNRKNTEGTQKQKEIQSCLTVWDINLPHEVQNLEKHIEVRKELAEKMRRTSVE
Test [2] deals with LRRK2 (human, G2019S mutant) (Homo sapiens, UniProt Q5S007, G2019S). Described as above.
LRRK2 (human, G2019S mutant), sequence (Q5S007 970-2527 G2019S): as the sequence (Q5S007 970-2527) above, with G1050S counted along it

LRRK2 (full-length, from BAC-transgenic mouse brain), sequence (Q5S006 whole entry): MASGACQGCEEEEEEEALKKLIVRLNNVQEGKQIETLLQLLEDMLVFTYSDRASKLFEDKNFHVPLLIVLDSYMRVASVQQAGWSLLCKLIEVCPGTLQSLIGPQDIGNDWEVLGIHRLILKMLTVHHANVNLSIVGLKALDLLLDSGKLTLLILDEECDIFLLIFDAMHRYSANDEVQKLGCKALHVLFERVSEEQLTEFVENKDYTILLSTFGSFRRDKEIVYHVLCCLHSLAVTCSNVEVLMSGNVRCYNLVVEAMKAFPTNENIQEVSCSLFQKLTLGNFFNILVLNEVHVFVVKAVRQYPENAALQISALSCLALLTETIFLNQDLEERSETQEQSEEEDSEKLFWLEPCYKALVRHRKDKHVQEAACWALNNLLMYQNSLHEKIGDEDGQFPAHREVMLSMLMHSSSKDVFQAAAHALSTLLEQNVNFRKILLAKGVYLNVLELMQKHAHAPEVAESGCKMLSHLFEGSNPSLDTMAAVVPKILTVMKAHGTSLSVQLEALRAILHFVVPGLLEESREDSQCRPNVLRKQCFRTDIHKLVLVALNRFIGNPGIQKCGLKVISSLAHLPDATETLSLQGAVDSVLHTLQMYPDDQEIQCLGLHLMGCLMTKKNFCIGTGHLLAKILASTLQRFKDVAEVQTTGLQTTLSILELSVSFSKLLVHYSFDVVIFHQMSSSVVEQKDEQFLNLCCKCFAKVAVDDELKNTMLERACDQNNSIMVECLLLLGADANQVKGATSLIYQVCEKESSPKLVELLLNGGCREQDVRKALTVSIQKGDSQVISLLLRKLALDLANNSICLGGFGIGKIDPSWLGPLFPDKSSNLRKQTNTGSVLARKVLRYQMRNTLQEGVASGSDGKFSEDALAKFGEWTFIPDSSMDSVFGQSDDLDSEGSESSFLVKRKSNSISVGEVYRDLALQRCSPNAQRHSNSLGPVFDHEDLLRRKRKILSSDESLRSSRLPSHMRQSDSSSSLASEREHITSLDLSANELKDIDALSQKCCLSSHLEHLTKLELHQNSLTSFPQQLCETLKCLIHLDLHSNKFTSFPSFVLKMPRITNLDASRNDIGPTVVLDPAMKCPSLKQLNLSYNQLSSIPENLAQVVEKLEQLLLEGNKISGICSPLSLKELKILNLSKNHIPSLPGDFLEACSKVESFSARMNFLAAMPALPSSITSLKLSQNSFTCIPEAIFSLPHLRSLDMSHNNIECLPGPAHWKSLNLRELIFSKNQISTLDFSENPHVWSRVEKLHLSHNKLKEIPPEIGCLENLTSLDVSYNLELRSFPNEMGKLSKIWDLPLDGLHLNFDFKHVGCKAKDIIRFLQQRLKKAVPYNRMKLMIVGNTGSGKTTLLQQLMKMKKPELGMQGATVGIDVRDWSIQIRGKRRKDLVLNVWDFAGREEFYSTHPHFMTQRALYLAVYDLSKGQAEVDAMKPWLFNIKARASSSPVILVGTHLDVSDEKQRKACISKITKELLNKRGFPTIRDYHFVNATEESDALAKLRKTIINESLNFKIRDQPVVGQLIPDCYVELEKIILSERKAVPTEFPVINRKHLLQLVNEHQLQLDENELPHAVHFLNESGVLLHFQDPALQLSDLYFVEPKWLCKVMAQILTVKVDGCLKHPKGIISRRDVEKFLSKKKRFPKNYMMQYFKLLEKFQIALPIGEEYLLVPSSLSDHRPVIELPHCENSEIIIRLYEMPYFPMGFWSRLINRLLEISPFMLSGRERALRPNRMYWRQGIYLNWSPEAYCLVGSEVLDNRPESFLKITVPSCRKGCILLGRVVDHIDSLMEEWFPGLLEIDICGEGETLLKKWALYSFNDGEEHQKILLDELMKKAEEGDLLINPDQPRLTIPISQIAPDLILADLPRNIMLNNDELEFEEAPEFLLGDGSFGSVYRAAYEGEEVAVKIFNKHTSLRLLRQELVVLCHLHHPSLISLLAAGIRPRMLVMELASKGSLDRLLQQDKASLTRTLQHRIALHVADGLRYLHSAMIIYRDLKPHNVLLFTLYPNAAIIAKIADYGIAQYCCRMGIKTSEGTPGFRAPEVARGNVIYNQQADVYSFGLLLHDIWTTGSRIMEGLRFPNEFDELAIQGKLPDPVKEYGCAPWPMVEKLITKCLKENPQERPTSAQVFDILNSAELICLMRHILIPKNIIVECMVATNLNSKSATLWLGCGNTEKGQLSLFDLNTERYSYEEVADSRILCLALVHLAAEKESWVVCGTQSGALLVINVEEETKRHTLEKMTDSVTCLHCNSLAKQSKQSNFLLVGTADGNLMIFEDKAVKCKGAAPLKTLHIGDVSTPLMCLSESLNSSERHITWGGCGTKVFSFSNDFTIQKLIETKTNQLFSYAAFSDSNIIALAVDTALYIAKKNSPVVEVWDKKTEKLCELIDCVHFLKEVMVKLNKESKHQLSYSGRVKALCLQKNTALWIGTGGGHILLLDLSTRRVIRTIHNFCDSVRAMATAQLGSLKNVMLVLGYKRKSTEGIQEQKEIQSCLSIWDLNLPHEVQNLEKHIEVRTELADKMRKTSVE

Take LDN-22684: the IC50 in test [1] is 5.4 ± 0.8 µM; against LRRK2 (human, wild-type), 6.1 ± 0.8 µM; in test [2], 6.9 ± 1 µM.

As a reminder, the IC50 is the concentration needed to halve the response being measured. Higher therefore signals a need for much substance.
